# Structures can show the parent of a compound that is named as a salt.
# Biological target: T1, Human Axl (Homo sapiens, UniProt P30530)
# T1 construct: Human AXL (residues 464-885)
# T1 sequence (P30530 1-894 Q764R): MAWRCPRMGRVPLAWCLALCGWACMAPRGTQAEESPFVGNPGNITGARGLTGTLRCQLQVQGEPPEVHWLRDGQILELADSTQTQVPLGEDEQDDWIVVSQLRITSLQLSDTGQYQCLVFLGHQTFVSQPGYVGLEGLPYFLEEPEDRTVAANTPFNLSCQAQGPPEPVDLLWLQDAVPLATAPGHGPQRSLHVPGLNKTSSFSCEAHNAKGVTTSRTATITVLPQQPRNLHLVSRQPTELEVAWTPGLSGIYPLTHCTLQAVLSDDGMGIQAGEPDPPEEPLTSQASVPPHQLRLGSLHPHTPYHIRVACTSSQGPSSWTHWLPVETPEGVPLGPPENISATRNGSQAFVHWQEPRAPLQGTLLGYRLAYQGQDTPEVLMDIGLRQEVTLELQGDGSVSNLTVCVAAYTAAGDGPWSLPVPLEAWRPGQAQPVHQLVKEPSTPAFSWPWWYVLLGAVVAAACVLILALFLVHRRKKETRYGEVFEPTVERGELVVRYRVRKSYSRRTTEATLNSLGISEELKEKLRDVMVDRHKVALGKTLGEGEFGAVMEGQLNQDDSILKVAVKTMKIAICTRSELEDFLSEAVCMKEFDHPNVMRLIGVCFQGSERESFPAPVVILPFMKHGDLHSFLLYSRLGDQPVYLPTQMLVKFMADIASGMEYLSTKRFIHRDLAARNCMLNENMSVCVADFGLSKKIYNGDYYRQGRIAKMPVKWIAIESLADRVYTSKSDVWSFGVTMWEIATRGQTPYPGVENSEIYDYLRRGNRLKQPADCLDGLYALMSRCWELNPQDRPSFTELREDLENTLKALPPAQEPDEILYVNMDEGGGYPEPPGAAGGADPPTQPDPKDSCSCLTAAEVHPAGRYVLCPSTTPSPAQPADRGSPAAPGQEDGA
# Assay: Human AXL kinase assay (33P radiometric / HTRF KinEase)
# Assay type: biochemical
# Details: protocols of Examples A-1 and/or A-2
row,Structure (SMILES),IC50
1,"C=C(C)c1c(C)n(C)c(C)c(C(=O)Nc2ccc(Oc3ccnc4cc(OC)c(OC)nc34)cc2)c1=O [Compound 55, N-[4-[(6,7-Dimethoxy-1,5-naphthyridin-4-yl)oxy]phenyl]-1,2,6-trimethyl-4-oxo-5-prop-1-en-2-ylpyridine-3-carboxamide]",≤ 100 nM
2,"COCCOc1cnc2c(Oc3ccc(NC(=O)c4c(C)n(C)c(C)c(C5=CCCCC5)c4=O)cc3F)ccnc2c1 [Compound 66, 5-(Cyclohexen-1-yl)-N-[3-fluoro-4-[[7-(2-methoxyethoxy)-1,5-naphthyridin-4-yl]oxy]phenyl]-1,2,6-trimethyl-4-oxopyridine-3-carboxamide]",≤ 100 nM
3,"COCCOc1cnc2c(Oc3ccc(NC(=O)c4c(C)n(C)c(C)c(C5=CCCC5)c4=O)cc3F)ccnc2c1 [Compound 65, 5-(Cyclopenten-1-yl)-N-[3-fluoro-4-[[7-(2-methoxyethoxy)-1,5-naphthyridin-4-yl]oxy]phenyl]-1,2,6-trimethyl-4-oxopyridine-3-carboxamide]",≤ 100 nM
4,"COCCOc1cc2nccc(Oc3ccc(NC(=O)c4c(C)n(C)c(C)c(/C=C/C5CCCC5)c4=O)cc3F)c2nc1OC [Compound 54, 5-[(E)-2-Cyclopentylethenyl]-N-[3-fluoro-4-[[6-methoxy-7-(2-methoxyethoxy)-1,5-naphthyridin-4-yl]oxy]phenyl]-1,2,6-trimethyl-4-oxopyridine-3-carboxamide]",≤ 100 nM
5,"COc1cc2nccc(Oc3ccc(NC(=O)c4c(C)n(C)c(C)c(C5=CCOCC5)c4=O)cc3F)c2nc1OC [Compound 53, 5-(3,6-Dihydro-2H-pyran-4-yl)-N-[4-[(6,7-dimethoxy-1,5-naphthyridin-4-yl)oxy]-3-fluorophenyl]-1,2,6-trimethyl-4-oxopyridine-3-carboxamide]",≤ 100 nM
6,"C=C(C)c1c(C)n(C)c(C)c(C(=O)Nc2ccc(Oc3ccnc4cc(OC)c(OC)nc34)c(F)c2)c1=O [Compound 52, N-[4-[(6,7-Dimethoxy-1,5-naphthyridin-4-yl)oxy]-3-fluorophenyl]-1,2,6-trimethyl-4-oxo-5-prop-1-en-2-ylpyridine-3-carboxamide]",≤ 100 nM
7,"COc1cc2nccc(Oc3ccc(NC(=O)c4c5n(c(C)c(C6=CCOCC6)c4=O)CCOC5)cc3)c2nc1OC [Compound 73, 7-(3,6-Dihydro-2H-pyran-4-yl)-N-[4-[(6,7-dimethoxy-1,5-naphthyridin-4-yl)oxy]phenyl]-6-methyl-8-oxo-3,4-dihydro-1H-pyrido[2,1-c][1,4]oxazine-9-carboxamide]",≤ 100 nM
8,"COCCOc1cc2nccc(Oc3ccc(NC(=O)c4c(C)n(C)c(C)c(C5=CCCCC5)c4=O)cc3F)c2nc1OC [Compound 58, 5-(Cyclohexen-1-yl)-N-[3-fluoro-4-[[6-methoxy-7-(2-methoxyethoxy)-1,5-naphthyridin-4-yl]oxy]phenyl]-1,2,6-trimethyl-4-oxopyridine-3-carboxamide]",≤ 100 nM

# Next, values leading:
row,IC50,Structure (SMILES)
1,≤ 100 nM,"COc1nc2c(Oc3ccc(NC(=O)c4c(C)n(C)c(C)c(C5=CCCC5)c4=O)cc3F)ccnc2cc1OCCC1CCC1 [Compound 74, N-[4-[[7-(2-Cyclobutylethoxy)-6-methoxy-1,5-naphthyridin-4-yl]oxy]-3-fluorophenyl]-5-(cyclopenten-1-yl)-1,2,6-trimethyl-4-oxopyridine-3-carboxamide]"
2,≤ 100 nM,"COc1cc2nccc(Oc3ccc(NC(=O)c4c5n(cc(C6=CCCCC6)c4=O)CCOC5)cc3F)c2nc1OC [Compound G1-4, 7-(Cyclohexen-1-yl)-N-[4-[(6,7-dimethoxy-1,5-naphthyridin-4-yl)oxy]-3-fluorophenyl]-8-oxo-3,4-dihydro-1H-pyrido[2,1-c][1,4]oxazine-9-carboxamide]"
3,≤ 100 nM,"COc1cc2nccc(Oc3ccc(NC(=O)c4cnc(C)c(C5=CCCC5)c4O)cc3F)c2nc1OC [Compound G1-2, 5-(Cyclopenten-1-yl)-N-[4-[(6,7-dimethoxy-1,5-naphthyridin-4-yl)oxy]-3-fluorophenyl]-4-hydroxy-6-methylpyridine-3-carboxamide hydrochloride]"
4,≤ 100 nM,"COc1cc2nccc(Oc3ccc(NC(=O)c4cnc(C)c(C5=CCCCC5)c4O)cc3F)c2nc1OC [Compound G1-3, 5-(Cyclohexen-1-yl)-N-[4-[(6,7-dimethoxy-1,5-naphthyridin-4-yl)oxy]-3-fluorophenyl]-4-hydroxy-6-methylpyridine-3-carboxamide]"
